Values quoted from earlier work as cited in patent US20080102137A1, “Composition and method for etiological treatment and prevention of diseases and/or complications associated with chronic glucose metabolism destabilization” (priority 2006, published 2008).

Key:
[1] = patients with panic disorders
[2] = 600 mg synthetic α-tocopherol daily for 14 days, diabetic individuals
fat cells = conditions: test tube assay of fat cells
blood platelet = blood platelet assay

## CN(C)C(=N)N=C(N)N [Metformin]
average
  lowers fasting blood glucose levels: 25%
Cases of metabolic syndrome
  reduces raised plasma insulin levels: ≤ 30%
In vivo
  lowers postprandial blood glucose: up to 44.5%

## O[C@H]1[C@H](O)[C@@H](O)[C@H](O)[C@@H](O)[C@H]1O [inositol]
[1]
  frequency and severity of panic attacks: reduction in the frequency and severity of panic attacks

## Cc1c(C)c2c(c(C)c1O)CC[C@@](C)(CCC[C@H](C)CCC[C@H](C)CCCC(C)C)O2 [α-tocopherol]
[2]
  biochemical marker of oxidative stress: reduction in the oxidative stress marker

## methylhydroxy chalcone polymer [MHCP]
Fat cells
  increased glucose metabolism: roughly 20 fold
Blood platelet
  formation of damaging oxygen radicals: prevented the formation of damaging oxygen radicals
